Assays:
WDR5 = WDR5 (Homo sapiens, UniProt P61964); assay: WDR5 HTRF binding assay; settings: read-out: (a) WDR5 HTRF Pep Val v.1[Inhibitor/IC50]Qualified AC50
Summary of the method: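 In this HTRF displacement format, biotinylated MLL1 WIN peptide (3762-3773, 20 nM) binds WDR5 (6 nM) in 25 mM Hepes pH 7.5 with 100 mM NaCl, 2 mM DTT and 0.1% BSA for 20 min at rt. Detection used streptavidin-APC/anti-His-Eu for 1 hr. IC50 came from dose-response fits of normalized signal; 15 nM biotin-PEG-His peptide served as counter assay.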

[1] = target: wild type MLL1 four-member complex (MLL1-4C) (Homo sapiens, UniProt P61964); assay: MLL1 LC-MS assay (SAH production); type: biochemical; settings: read-out: (b) MLL LCMS Peptide Val.v.1 Qualified AC50
Summary of the method: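 SAH formation, measured by LC-MS/MS after a TFA quench containing d4-SAH, was normalised to no-compound and no-enzyme controls and fitted to a dose-response curve for IC50. Reactions ran 120 min at rt (pH 8.0 Tris buffer) with final 30 nM MLL1 four-member complex, 2.5 μM SAM and 10 μM biotinylated H3[1-21] peptide, after a 20-min enzyme/SAM-compound preincubation.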

MV4-11 cells = assay: MV4-11 6-day cell growth CTG (CellTiter-Glo) assay; type: cell-based; settings: Homo sapiens, MV4-11, 144 h, 6 days, read-out: (c) MLL/WDR5 cell proliferation assay//MLL/WDR5 proliferation MV4:11 Qualified AC50
Summary of the method: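 IC50 comes from a dose-response fit of % inhibition relative to DMSO controls, with viable cells measured by CellTiter-Glo luminescence. Compounds were tested over 12 points (1:3, starting at 50 μM final) on MV4-11 cells plated at 300/well and grown 6 days.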

Q: With `CCOc1cc(C(C)N2CCc3c(cc(CCN(C)CC)cc3C(C)(O)C(F)(F)F)C2=O)ncc1C#N` (stereo not drawn) [Example 304, 4-ethoxy-6-(1-(7-(2-(ethyl(methyl)amino)ethyl)-1-oxo-5-(1,1,1-trifluoro-2-hydroxypropan-2-yl)-3,4-dihydroisoquinolin-2(1H)-yl)ethyl)nicotinonitrile] as the molecule, how does the IC50 (WDR5) read?
A: 0.01 to 1 µM

Q: What about the AC50 [1] of the same molecule?
A: 0.01 to 1 µM

Q: What about the AC50 (MV4-11 cells) of the same molecule?
A: 1 to 25 µM

Q: Which IC50 (WDR5) does the source give for `CCOc1cc(CN2CCc3c(cc(CCN(C)CC)cc3C(OC)C(F)(F)F)C2=O)ncc1C#N` (stereo not drawn) [Example 305, 4-ethoxy-6-((7-(2-(ethyl(methyl)amino)ethyl)-1-oxo-5-(2,2,2-trifluoro-1-methoxyethyl)-3,4-dihydroisoquinolin-2(1H)-yl)methyl)nicotinonitrile] here?
A: 0.01 to 1 µM

Q: What about the AC50 [1] of the same molecule?
A: 0.01 to 1 µM

Q: What about the AC50 (MV4-11 cells) of the same molecule?
A: 0.01 to 1 µM

Q: With `CCOc1cc(C(C)N2CCc3c(cc(CCN(C)CC)cc3C(O)C(C)(C)C)C2=O)ncc1C#N` (stereo not drawn) [compound 257] as the molecule, how does the IC50 (WDR5) read?
A: 0.01 to 1 µM

Q: And the AC50 [1]?
A: 0.01 to 1 µM

Q: And the AC50 (MV4-11 cells)?
A: 0.01 to 1 µM

Q: Which results are given for `CCOc1cc(C(C)N2CCc3c(cc(CCN(C)CC)cc3C(O)C(F)(F)F)C2=O)ncc1F` (stereo not drawn) [compound 260]?
A: IC50 (WDR5): 0.01 to 1 µM; AC50 [1]: 0.01 to 1 µM; AC50 (MV4-11 cells): 0.01 to 1 µM

— patent publication US20220289732A1, “HETEROCYCLIC WDR5 INHIBITORS AS ANTI-CANCER COMPOUNDS” (NOVARTIS AG, priority 2019, published 2022)
